From patent US20220378923A1, “BET DEGRADER” (KYOWA KIRIN CO., LTD., priority 2019, published 2022)
Read-outs that look alike come from different tables or passages of the source.

Tested on: SU-DHL-4 cells
Experiment: Inhibitory effect on cell viability in SU-DHL-4 cell line (Test Example 1)
Format: cell-based, human
Conditions: SU-DHL-4 cells, 72 hours, Cell Counting Kit-8, concentration showing 90% inhibition of cell viability, read-out: SU-DHL-4 Cell Viability Inhibition Rate IC90
Method in brief: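 SU-DHL-4 cells were grown at 37° C. under 5% CO2 in RPMI1640 with 10 vol % heat-inactivated FBS plus penicillin/streptomycin, seeded and precultured for 18 to 25 hours, then exposed to test compound at 0.1 vol % DMSO for 72 hours. Viability was read with Cell Counting Kit-8 by absorbance at 450 nm.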

IC90	IC90 (Homo sapiens)	Structure (SMILES)
0.26 nM	–	CCC(=O)N1c2ccccc2[C@H](Nc2ccc(NC(=O)C3CN(C(=O)[C@H]4CC[C@H](N[C@@H]5C[C@H](C)N(C(=O)CC)c6ccccc65)CC4)C3)cc2)C[C@@H]1C [Compound 8c, 1-((1R,4R)-4-(((2S,4R)-2-Methyl-1-propionyl-1,2,3,4-tetrahydroquinolin-4-yl)amino)cyclohexane-1-carbonyl)-N-(4-(((2S,4R)-2-methyl-1-propionyl-1,2,3,4-tetrahydroquinolin-4-yl)amino)phenyl)azetidine-3-carboxamide]
1.14 nM	–	CCC(=O)N1c2ccccc2[C@H](Nc2ccc(Cn3cc(C(=O)N[C@H]4CC[C@H](N[C@@H]5C[C@H](C)N(C(=O)CC)c6ccccc65)CC4)nn3)cc2)C[C@@H]1C [Compound 8f, 1-(4-(((2S,4R)-2-Methyl-1-propionyl-1,2,3,4-tetrahydroquinolin-4-yl)amino)benzyl)-N-((1R,4R)-4-(((2S,4R)-2-methyl-1-propionyl-1,2,3,4-tetrahydroquinolin-4-yl)amino)cyclohexyl)-1H-1,2,3-triazole-4-carboxamide]
0.11 nM	–	CCC(=O)N1c2ccccc2[C@H](Nc2ccc(C(=O)NCC#CC(=O)NC3CCC(N[C@@H]4C[C@H](C)N(C(=O)CC)c5ccccc54)CC3)cc2)C[C@@H]1C (stereo partly drawn) [Compound 8m, 4-(((2S,4R)-2-Methyl-1-propionyl-1,2,3,4-tetrahydroquinolin-4-yl)amino)-N-(4-(((1R,4r)-4-(((2S,4R)-2-methyl-1-propionyl-1,2,3,4-tetrahydroquinolin-4-yl)amino)cyclohexyl)amino)-4-oxobut-2-yn-1-yl)benzamide]
15 nM	–	CCC(=O)N1c2ccccc2[C@H](Nc2ccc(C(=O)N3C[C@H]4C[C@@H]3CN4C(=O)[C@H]3CC[C@H](N[C@@H]4C[C@H](C)N(C(=O)CC)c5ccccc54)CC3)cc2)C[C@@H]1C [Compound 8p, 1-((2S,4R)-2-Methyl-4-(((1R,4R)-4-((1R,4R)-5-(4-(((2S,4R)-2-methyl-1-propionyl-1,2,3,4-tetrahydroquinolin-4-yl)amino)benzoyl)-2,5-diazabicyclo[2.2.1]heptane-2-carbonyl)cyclohexyl)amino)-3,4-dihydroquinolin-1(2H)-yl)propan-1-one]
7.16 nM	–	CCC(=O)N1c2ccccc2[C@H](Nc2ccc(NC(=O)NC3CN(C(=O)C4CCC(N[C@@H]5C[C@H](C)N(C(=O)CC)c6ccccc65)CC4)C3)cc2)C[C@@H]1C (stereo partly drawn) [Compound 9h, 1-(1-((1R,4r)-4-(((2S,4R)-2-Methyl-1-propionyl-1,2,3,4-tetrahydroquinolin-4-yl)amino)cyclohexane-1-carbonyl)azetidin-3-yl)-3-(4-(((2S,4R)-2-methyl-1-propionyl-1,2,3,4-tetrahydroquinolin-4-yl)amino)phenyl)urea]
3.5 nM	–	CCC(=O)N1c2ccccc2[C@H](Nc2ccc(C(=O)NC3CN(C(=O)c4ccc(C5=N[C@@H](CC(=O)OCCN(C)C)c6nnc(C)n6-c6sc(C)c(C)c65)cc4)C3)cc2)C[C@@H]1C [Compound 13b, 2-(Dimethylamino)ethyl 2-((S)-2,3,9-trimethyl-4-(4-(3-(4-(((2S,4R)-2-methyl-1-propionyl-1,2,3,4-tetrahydroquinolin-4-yl)amino)benzamide)azetidine-1-carbonyl)phenyl)-6H-thieno[3,2-f][1,2,4]triazolo[4,3-a][1,4]diazepin-6-yl)acetate]
7.36 nM	–	CCC(=O)N1c2ccccc2[C@H](Nc2ccc(C(=O)NCCCNC(=O)c3ccc(C4=N[C@@H](CC(=O)OCCN(C)C)c5nnc(C)n5-c5sc(C)c(C)c54)cc3)cc2)C[C@@H]1C [Compound 13c, 2-(Dimethylamino)ethyl 2-((S)-2,3,9-trimethyl-4-(4-((3-(4-(((2S,4R)-2-methyl-1-propionyl-1,2,3,4-tetrahydroquinolin-4-yl)amino)benzamide)propyl)carbamoyl)phenyl)-6H-thieno[3,2-f][1,2,4]triazolo[4,3-a][1,4]diazepin-6-yl)acetate]
3.33 nM	–	CCNC(=O)C[C@@H]1N=C(c2ccc(C(=O)NCCCNC(=O)c3ccc(N[C@@H]4C[C@H](C)N(C(=O)CC)c5ccccc54)cc3)cc2)c2c(sc(C)c2C)-n2c(C)nnc21 [Compound 13e, 4-((S)-6-(2-(Ethylamino)-2-oxoethyl)-2,3,9-trimethyl-6H-thieno[3,2-f][1,2,4]triazolo[4,3-a][1,4]diazepin-4-yl)-N-(3-(4-(((2S,4R)-2-methyl-1-propionyl-1,2,3,4-tetrahydroquinolin-4-yl)amino)benzamide)propyl)benzamide]
11.6 nM	–	CCC(=O)N1c2ccccc2[C@H](Nc2ccc(C(=O)NCCCNC(=O)c3ccc(C4=N[C@@H](CC(=O)N5CCN(CCO)CC5)c5nnc(C)n5-c5sc(C)c(C)c54)cc3)cc2)C[C@@H]1C [Compound 13f, 4-((S)-6-(2-(4-(2-Hydroxyethyl)piperazin-1-yl)-2-oxoethyl)-2,3,9-trimethyl-6H-thieno[3,2-f][1,2,4]triazolo[4,3-a][1,4]diazepin-4-yl)-N-(3-(4-(((2S,4R)-2-methyl-1-propionyl-1,2,3,4-tetrahydroquinolin-4-yl)amino)benzamide)propyl)benzamide]
1.7 nM	–	CCC(=O)N1c2ccccc2[C@H](Nc2ccc(C(=O)NCCCNC(=O)c3ccc(C4=N[C@@H](CC(=O)OCCO)c5nnc(C)n5-c5sc(C)c(C)c54)cc3)cc2)C[C@@H]1C [Compound 13g, 2-Hydroxyethyl 2-((S)-2,3,9-trimethyl-4-(4-((3-(4-(((2S,4R)-2-methyl-1-propionyl-1,2,3,4-tetrahydroquinolin-4-yl)amino)benzamide)propyl)carbamoyl)phenyl)-6H-thieno[3,2-f][1,2,4]triazolo[4,3-a][1,4]diazepin-6-yl)acetate]
0.6 nM	–	CCC(=O)N1c2ccccc2[C@H](Nc2ccc(C(=O)NCC(=O)CNC(=O)c3ccc(C4=NCc5nnc(C)n5-c5sc(C)c(C)c54)cc3)cc2)C[C@@H]1C [Compound 14l, 4-(((2S,4R)-2-Methyl-1-propionyl-1,2,3,4-tetrahydroquinolin-4-yl)amino)-N-(2-oxo-3-(4-(2,3,9-trimethyl-6H-thieno[3,2-f][1,2,4]triazolo[4,3-a][1,4]diazepin-4-yl)benzamide)propyl)benzamide]
34 nM	–	CCC(=O)N1c2ccccc2[C@H](Nc2ccc(C(=O)NCCCNC(=O)c3ccc(Cn4c(C(=O)OCCN(C)C)cc5c4CCCC5=O)cc3)cc2)C[C@@H]1C [Compound 15e, 2-(Dimethylamino)ethyl 1-(4-((3-(4-(((2S,4R)-2-methyl-1-propionyl-1,2,3,4-tetrahydroquinolin-4-yl)amino)benzamide)propyl)carbamoyl)benzyl)-4-oxo-4,5,6,7-tetrahydro-1H-indole-2-carboxylate]
5.03 nM	–	CCC(=O)N1c2ccccc2[C@H](Nc2ccc(C(=O)NCCCNC(=O)c3ccc(Cn4c(C(=O)OC)cc5c4CCCC5=O)cc3)cc2)C[C@@H]1C [Compound 15g, Methyl 1-(4-((3-(4-(((2S,4R)-2-methyl-1-propionyl-1,2,3,4-tetrahydroquinolin-4-yl)amino)benzamide)propyl)carbamoyl)benzyl)-4-oxo-4,5,6,7-tetrahydro-1H-indole-2-carboxylate]
0.88 nM	–	CCC(=O)N1c2ccccc2[C@H](Nc2ccc(NC(=O)CCCC(=O)Nc3ccc(Cn4c(CC)cc5c4CCCC5=O)cc3)cc2)C[C@@H]1C [Compound 15i]
–	11.1 nM	CCC(=O)N1c2ccccc2[C@H](Nc2ccc(NC(=O)C3CN(C(=O)c4ccc(OCCN5CCN(C)C(=O)[C@H]5C)cc4)C3)cc2)C[C@@H]1C [Compound 16a, 1-(4-(2-((R)-2,4-Dimethyl-3-oxopiperazin-1-yl)ethoxy)benzoyl)-N-(4-(((2S,4R)-2-methyl-1-propionyl-1,2,3,4-tetrahydroquinolin-4-yl)amino)phenyl)azetidine-3-carboxamide]
–	2.05 nM	CCC(=O)N1c2ccccc2[C@H](Nc2ccc(-c3nnc(CNC(=O)c4ccc(OCCN5CCN(C)C(=O)[C@H]5C)cc4)o3)cc2)C[C@@H]1C [Compound 16b, 4-(2-((R)-2,4-Dimethyl-3-oxopiperazin-1-yl)ethoxy)-N-((5-(4-(((2S,4R)-2-methyl-1-propionyl-1,2,3,4-tetrahydroquinolin-4-yl)amino)phenyl)-1,3,4-oxadiazol-2-yl)methyl)benzamide]
–	0.28 nM	CCC(=O)N1c2ccccc2[C@H](Nc2ccc(-c3nnc(CNC(=O)N4CCN(Cc5cc(O)cc(-c6c(C)noc6C)c5)CC4)o3)cc2)C[C@@H]1C [Compound 16c, 4-(3-(3,5-Dimethylisoxazol-4-yl)-5-hydroxybenzyl)-N-((5-(4-(((2S,4R)-2-methyl-1-propionyl-1,2,3,4-tetrahydroquinolin-4-yl)amino)phenyl)-1,3,4-oxadiazol-2-yl)methyl)piperazine-1-carboxamide]
–	0.17 nM	CCC(=O)N1c2ccccc2[C@H](Nc2ccc(-n3cc(CNC(=O)C4CCN(Cc5cc(O)cc(-c6c(C)noc6C)c5)CC4)nn3)cc2)C[C@@H]1C [Compound 16d, 1-(3-(3,5-Dimethylisoxazol-4-yl)-5-hydroxybenzyl)-N-((1-(4-(((2S,4R)-2-methyl-1-propionyl-1,2,3,4-tetrahydroquinolin-4-yl)amino)phenyl)-1H-1,2,3-triazol-4-yl)methyl)piperidine-4-carboxamide]

Structure (SMILES)	IC90	IC90 (Homo sapiens)
CCC(=O)N1c2ccccc2[C@H](Nc2ccc(C(=O)NC3CCN(C(=O)c4ccc(C5=N[C@@H](CC(=O)OC(C)(C)C)c6nnc(C)n6-c6sc(C)c(C)c65)cc4)CC3)cc2)C[C@@H]1C [Compound 13j, tert-Butyl 2-((S)-2,3,9-trimethyl-4-(4-(4-(4-(((2S,4R)-2-methyl-1-propionyl-1,2,3,4-tetrahydroquinolin-4-yl)amino)benzamide)piperidine-1-carbonyl)phenyl)-6H-thieno[3,2-f][1,2,4]triazolo[4,3-a][1,4]diazepin-6-yl)acetate]	0.31 nM	–
